In US20120184583A1, “MODULATORS OF ATP-BINDING CASSETTE TRANSPORTERS” (VERTEX PHARMACEUTICALS INCORPORATED, priority 2003, published 2012):

Tests used:
[1] = biological target: T1, ΔF508-CFTR stably expressed in NIH3T3 cells (Homo sapiens, UniProt P13569, DEL508-508); experiment: Membrane potential optical (FRET/VIPR) assay for ΔF508-CFTR potentiation; type: cell-based; details: for Emax: NIH3T3, read-out: % Efficacy (relative modulating efficacy in comparison with genistein), normalized to peak genistein response
T1 construct: expressed in transfected cells
T1 sequence (P13569 with tags, fused parts or gaps DEL508-508): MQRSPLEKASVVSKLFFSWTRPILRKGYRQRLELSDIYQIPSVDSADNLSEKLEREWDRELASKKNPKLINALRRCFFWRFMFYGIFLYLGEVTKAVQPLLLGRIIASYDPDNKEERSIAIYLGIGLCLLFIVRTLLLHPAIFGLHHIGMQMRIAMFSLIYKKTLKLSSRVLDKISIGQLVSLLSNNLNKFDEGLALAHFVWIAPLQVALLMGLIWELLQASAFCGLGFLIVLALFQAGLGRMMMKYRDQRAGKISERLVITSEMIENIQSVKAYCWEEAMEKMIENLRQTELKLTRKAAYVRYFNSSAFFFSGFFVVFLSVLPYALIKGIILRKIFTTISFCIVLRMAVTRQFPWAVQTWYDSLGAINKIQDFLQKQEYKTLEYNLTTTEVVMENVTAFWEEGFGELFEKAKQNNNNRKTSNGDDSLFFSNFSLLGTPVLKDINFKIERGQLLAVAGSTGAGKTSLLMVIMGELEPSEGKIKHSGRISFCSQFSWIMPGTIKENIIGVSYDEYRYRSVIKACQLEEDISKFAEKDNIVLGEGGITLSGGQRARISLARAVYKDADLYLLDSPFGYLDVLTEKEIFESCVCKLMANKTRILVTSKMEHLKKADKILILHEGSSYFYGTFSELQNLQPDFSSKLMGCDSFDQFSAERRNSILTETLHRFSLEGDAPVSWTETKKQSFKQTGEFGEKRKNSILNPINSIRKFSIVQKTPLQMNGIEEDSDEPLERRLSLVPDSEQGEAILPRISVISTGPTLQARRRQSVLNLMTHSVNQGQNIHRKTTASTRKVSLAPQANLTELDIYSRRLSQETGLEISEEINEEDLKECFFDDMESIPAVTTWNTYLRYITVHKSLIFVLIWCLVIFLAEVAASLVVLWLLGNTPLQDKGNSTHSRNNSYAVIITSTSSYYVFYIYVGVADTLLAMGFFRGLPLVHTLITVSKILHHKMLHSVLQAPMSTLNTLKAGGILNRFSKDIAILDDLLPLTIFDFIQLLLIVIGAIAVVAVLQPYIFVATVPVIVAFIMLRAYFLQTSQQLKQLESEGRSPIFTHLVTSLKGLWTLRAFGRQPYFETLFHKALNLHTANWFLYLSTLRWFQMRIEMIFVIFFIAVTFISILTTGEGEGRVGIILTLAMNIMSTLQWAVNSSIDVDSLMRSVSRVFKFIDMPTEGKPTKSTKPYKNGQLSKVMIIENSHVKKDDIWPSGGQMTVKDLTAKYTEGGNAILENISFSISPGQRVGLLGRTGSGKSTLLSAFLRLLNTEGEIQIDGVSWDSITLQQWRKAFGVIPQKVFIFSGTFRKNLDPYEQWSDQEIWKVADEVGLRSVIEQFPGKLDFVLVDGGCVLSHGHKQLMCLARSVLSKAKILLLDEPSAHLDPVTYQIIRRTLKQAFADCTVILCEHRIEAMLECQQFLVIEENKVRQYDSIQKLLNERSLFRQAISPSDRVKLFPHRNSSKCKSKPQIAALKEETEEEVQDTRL
From the text: Membrane potential optical methods for assaying ΔF508-CFTR potentiation properties of compounds.
These voltage sensitive assays are based on the change in fluorescence resonant energy transfer (FRET) between the membrane-soluble, voltage-sensitive dye, DiSBAC2(3), and a fluorescent phospholipid, CC2-DMPE, which is attached to the outer leaflet of the plasma membrane and acts as a FRET donor. Changes in membrane potential (Vm) cause the negatively charged DiSBAC2(3) to redistribute across the plasma membrane and the amount of energy transfer from CC2-DMPE changes accordingly. The changes in fluorescence emission were monitored using VIPR™ II, which is an integrated liquid handler and fluorescent detector designed to conduct cell-based screens in 96- or 384-well microtiter plates.
To identify potentiators of ΔF508-CFTR, a double-addition HTS assay format was developed (FIG. 1A). During the first addition, a Cl^−-free medium with or without test compound was added to each well. After 22 sec, a second addition of Cl^−-free medium containing 2-10 μM forskolin was added to activate ΔF508-CFTR. The extracellular Cl^− concentration following both additions was 28 mM, which promoted Cl^− efflux in response to ΔF508-CFTR activation and the resulting membrane depolarization was optically monitored using the FRET-based voltage-sensor dyes. The double-addition format has several advantages. First, it enables separation of compounds that act independently of forskolin-activated ΔF508-CFTR. Second, it allows compounds that act from the cytoplasmic surface of the channel to cross the plasma membrane and take effect. Lastly, fluorescent changes that arise from test compound addition alone can be identified.
High-throughput assay format for identifying potentiators of ΔF508-CFTR stably expressed in NIH3T3 cells.
FIG. 1A: Double-addition assay format in which Cl^−-free medium was added with or without the test compound prior to forskolin addition. The cells were incubated at 27° C. for 16-24 hr prior to use.
• Bath Solution #1: (in mM)NaCl 160, KCl 4.5, CaCl2 2, MgCl2 1, HEPES 10, pH 7.4 with NaOH. • Chloride-free bath solution: Chloride salts in Bath Solution #1 are substituted with gluconate salts. • CC2-DMPE: Prepared as a 10 mM stock solution in DMSO and stored at −20° C. • DiSBAC2(3): Prepared as a 10 mM stock in DMSO and stored at −20° C.
NIH3T3 mouse fibroblasts stably expressing ΔF508-CFTR are used for optical measurements of membrane potential. The cells are maintained at 37° C. in 5% CO2 and 90% humidity in Dulbecco's modified Eagle's medium supplemented with 2 mM glutamine, 10% fetal bovine serum, 1×NEAA, β-ME, 1×pen/strep, and 25 mM HEPES in 175 cm^2 culture flasks. For all optical assays, the cells were seeded at 30,000/well in 384-well matrigel-coated plates and cultured for 2 hrs at 37° C. before culturing at 27° C. for 24 hrs.

[2] = biological target: T2, ΔF508-CFTR expressed in FRT epithelial cells (Homo sapiens, UniProt P13569, DEL508-508); experiment: Ussing chamber assay, short-circuit current in FRT epithelia; type: cell-based
T2 construct: expressed in transfected cells; host or cells: Fisher rat epithelial (FRT) cells, vector-infected
T2 sequence (P13569 with tags, fused parts or gaps DEL508-508): as above
Experimental: FRT^ΔF508-CFTR epithelial cells grown on Costar Snapwell cell culture inserts were mounted in an Ussing chamber (Physiologic Instruments, Inc., San Diego, Calif.), and the monolayers were continuously short-circuited using a Voltage-clamp System (Department of Bioengineering, University of Iowa, Iowa, and, Physiologic Instruments, Inc., San Diego, Calif.). Transepithelial resistance was measured by applying a 2-mV pulse. […] Typical protocol utilized a basolateral to apical membrane Cl^− concentration gradient. To set up this gradient, normal ringers was used on the basolateral membrane and was permeabilized with nystatin (360 μg/ml), whereas apical NaCl was replaced by equimolar sodium gluconate (titrated to pH 7.4 with NaOH) to give a large Cl concentration gradient across the epithelium. All experiments were performed 30 min after nystatin permeabilization. The solutions were maintained at 27° C. and bubbled with air. The electrode offset potential and fluid resistance were corrected using a cell-free insert. Under these conditions, the current reflects the flow of Cl^− through ΔF508-CFTR expressed in the apical membrane. The ISC was digitally acquired using an MP100A-CE interface and AcqKnowledge software (version 3.2.6; BIOPAC Systems, Santa Barbara, Calif.). Forskolin (10 μM) and all test compounds were added to both sides of the cell culture inserts. […]

Row | Emax [1] | SMILES | other results
1 | 35 to 75% | Cc1ccc(O)c(-c2cc(-c3ccncc3)n[nH]2)c1 [IA-93] | –
2 | 35 to 75% | COc1ccccc1-c1cc(-c2cc(C)ccc2O)[nH]n1 [IA-94] | –
3 | 35 to 75% | Cc1ccc(O)c(-c2cc(-c3nc(C)c(-c4ccc5c(c4)OCC5)s3)n[nH]2)c1 [IA-95] | –
4 | 35 to 75% | O=[N+]([O-])c1ccccc1-c1cc(-c2ccccc2O)n[nH]1 [IA-97] | –
5 | 35 to 75% | Oc1ccccc1-c1cc(-c2ccc(C(F)(F)F)cc2F)n[nH]1 [IA-98] | –
6 | 35 to 75% | COc1ccc(-c2cc(-c3cc(C)ccc3O)n[nH]2)c(F)c1 [IA-99] | –
7 | 35 to 75% | COc1ccc(-c2cc(-c3ccc(C)cc3O)n[nH]2)cc1 [IA-100] | –
8 | 35 to 75% | CCOc1ncccc1-c1cc(-c2ccccc2O)[nH]n1 [IA-101] | –
9 | 35 to 75% | Cc1ccc(O)c(-c2cc(-c3ccc([N+](=O)[O-])cc3)n[nH]2)c1 [IA-102] | –
10 | < 35% | Cc1ccc(O)c(-c2cc(-c3ccc(C(F)(F)F)cc3)[nH]n2)c1 [IA-103] | –
11 | 35 to 75% | Cc1ccc(O)c(-c2cc(-c3ccc(F)cc3)[nH]n2)c1 [IA-104] | –
12 | 35 to 75% | Cc1ccc(O)c(-c2cc(-c3c(Cl)cccc3Cl)n[nH]2)c1 [IA-105] | –
13 | 35 to 75% | Cc1ccc(-c2cc(-c3cccc(F)c3)[nH]n2)c(O)c1 [IA-106] | –
14 | 35 to 75% | Cc1ccc(O)c(-c2cc(-c3cc(C)on3)n[nH]2)c1 [IA-107] | –
15 | – | Oc1ccccc1-c1cc(-c2ccccc2Cl)[nH]n1 [IA-113] | % Efficacy (relative modulating efficacy in comparison with genistein) ([1]; normalized to peak genistein response): + (an efficacy range of <35% when compared to genistein)
16 | 35 to 75% | O=[N+]([O-])c1ccc(-c2cc(-c3cc(C(F)(F)F)ccc3O)[nH]n2)cc1 [IA-114] | –
17 | < 35% | Cc1ccc(O)c(-c2cc(-c3cc(Cl)ccc3F)n[nH]2)c1 [IA-115] | –
18 | – | O=c1c(-c2ccc(O)cc2)coc2cc(O)cc(O)c12 [genistein, reference compound] | effect on forskolin-induced membrane depolarization [1]: augmented; membrane potential response in the absence of forskolin addition ([1]; data not shown): no response; potentiation of the forskolin-induced response ([1]; optical assay, n=35): 72.8±7.2%; ISC potentiated to ([2]; genistein 50 μM added after forskolin 10 μM, n=8): 21±1.5 μA/cm^2; stimulation of ISC when applied prior to forskolin addition ([2]; no forskolin, data not shown): did not stimulate
